Experimental data reported in PubChem BioAssay AID248 (DTP/NCI, 2004).
Values joined by “and” are separate entries in the source; they are usually repeats but may differ in a detail not shown here. Equal values may be shown once. Inconclusive results and toxic doses are left out. Cut-off read from the data, not from the text of the source: active = T/C of 150% or more; inactive = T/C below 125%.

System: L1210 leukemia ip in BDF1 mice, survival T/C
Test: NCI In Vivo Anticancer Drug Screen. Data for tumor model L1210 Leukemia (intraperitoneal) in B6D2F1 (BDF1) mice
Conditions: higher = longer survival
Summary of the method: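 Read-out is survival time, reported as the treated-group measurement over the vehicle-control measurement.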

[1] = endpoint: mean survival time, dose: 6.25 mg/kg/injection, schedule: Q01DX009 (ip), vehicle: saline
[2] = endpoint: mean survival time, dose: 12.5 mg/kg/injection, schedule: Q01DX009 (ip), vehicle: saline
[3] = endpoint: mean survival time, dose: 100.0 mg/kg/injection, schedule: Q01DX001 (ip), vehicle: saline
[4] = endpoint: mean survival time, dose: 200.0 mg/kg/injection, schedule: Q01DX001 (ip), vehicle: saline
[5] = endpoint: mean survival time, dose: 100.0 mg/kg/injection, schedule: Q04DX002 (ip), vehicle: Klucel (hydroxypropylcellulose) (HPC)
[6] = endpoint: mean survival time, dose: 200.0 mg/kg/injection, schedule: Q04DX002 (ip), vehicle: Klucel (hydroxypropylcellulose) (HPC)
[7] = endpoint: mean survival time, dose: 400.0 mg/kg/injection, schedule: Q04DX002 (ip), vehicle: Klucel (hydroxypropylcellulose) (HPC)
[8] = endpoint: mean survival time, dose: 400.0 mg/kg/injection, schedule: Q01DX001 (ip), vehicle: saline
[9] = endpoint: mean survival time, dose: 100.0 mg/kg/injection, schedule: Q01DX009 (ip), vehicle: Klucel (hydroxypropylcellulose) (HPC)
[10] = endpoint: mean survival time, dose: 200.0 mg/kg/injection, schedule: Q01DX009 (ip), vehicle: Klucel (hydroxypropylcellulose) (HPC)
[11] = endpoint: mean survival time, dose: 400.0 mg/kg/injection, schedule: Q01DX009 (ip), vehicle: Klucel (hydroxypropylcellulose) (HPC)

Measured: T/C

C=CCNC(=O)NCC=C
active: endpoint: mean survival time, dose: 50.0 mg/kg/injection, schedule: Q01DX009 (oral), vehicle: saline 176 % of control
inactive: [1] 114 % of control | endpoint: mean survival time, dose: 6.25 mg/kg/injection, schedule: Q01DX009 (oral), vehicle: saline 116 % of control | [2] 105 % of control and 106 % of control | endpoint: mean survival time, dose: 12.5 mg/kg/injection, schedule: Q01DX009 (oral), vehicle: saline 110 % of control | [3] 111 % of control | [4] 114 % of control | endpoint: mean survival time, dose: 200.0 mg/kg/injection, schedule: Q01DX009 (oral), vehicle: saline 100 % of control | endpoint: mean survival time, dose: 300.0 mg/kg/injection, schedule: Q01DX009 (ip), vehicle: saline 122 % of control | endpoint: median survival time, dose: 12.5 mg/kg/injection, schedule: Q01DX009 (ip), vehicle: saline 122 % of control | endpoint: median survival time, dose: 12.5 mg/kg/injection, schedule: Q01DX009 (sc), vehicle: saline 116 % of control | endpoint: median survival time, dose: 50.0 mg/kg/injection, schedule: Q01DX009 (ip), vehicle: saline 112 % of control and 122 % of control | endpoint: median survival time, dose: 100.0 mg/kg/injection, schedule: Q01DX001 (ip), vehicle: saline 105 % of control | endpoint: median survival time, dose: 100.0 mg/kg/injection, schedule: Q01DX001 (sc), vehicle: saline 105 % of control | endpoint: median survival time, dose: 100.0 mg/kg/injection, schedule: Q04DX003 (ip), vehicle: saline 105 % of control | endpoint: median survival time, dose: 100.0 mg/kg/injection, schedule: Q04DX003 (sc), vehicle: saline 111 % of control | endpoint: median survival time, dose: 200.0 mg/kg/injection, schedule: Q01DX001 (ip), vehicle: saline 111 % of control | endpoint: median survival time, dose: 200.0 mg/kg/injection, schedule: Q01DX001 (sc), vehicle: saline 111 % of control | endpoint: median survival time, dose: 200.0 mg/kg/injection, schedule: Q01DX009 (ip), vehicle: saline 100 % of control and 122 % of control | endpoint: median survival time, dose: 200.0 mg/kg/injection, schedule: Q04DX003 (ip), vehicle: saline 116 % of control | endpoint: median survival time, dose: 200.0 mg/kg/injection, schedule: Q04DX003 (sc), vehicle: saline 116 % of control

Nc1ccccc1S(N)(=O)=O
inactive: endpoint: mean survival time, dose: 25.0 mg/kg/injection, schedule: Q04DX002 (ip), vehicle: Klucel (hydroxypropylcellulose) (HPC) 97 % of control | endpoint: mean survival time, dose: 50.0 mg/kg/injection, schedule: Q04DX002 (ip), vehicle: Klucel (hydroxypropylcellulose) (HPC) 97 % of control | [5] 101 % of control and 120 % of control | [6] 97 % of control and 100 % of control | [7] 113 % of control

CC(Cc1ccccc1)N(C)N (stereo not given)
inactive: endpoint: mean survival time, dose: 1.56 mg/kg/injection, schedule: Q01DX009 (ip), vehicle: saline 94 % of control | endpoint: mean survival time, dose: 3.12 mg/kg/injection, schedule: Q01DX009 (ip), vehicle: saline 102 % of control | [1] 91 % of control | [2] 88 % of control | endpoint: mean survival time, dose: 25.0 mg/kg/injection, schedule: Q01DX009 (ip), vehicle: saline 102 % of control

CC(C)(CBr)C(=O)O
inactive: [3] 95 % of control | [4] 95 % of control | [8] 100 % of control

COc1cc([N+](=O)[O-])ccc1NC(=O)N(Cc1ccccc1)c1ccccc1
inactive: [9] 98 % of control | [10] 93 % of control | [11] 91 % of control

COc1ccc(-n2cccc2)cc1
inactive: endpoint: mean survival time, dose: 100.0 mg/kg/injection, schedule: Q01DX001 (ip), vehicle: steriod suspending solution 95 % of control | [5] 90 % of control | endpoint: mean survival time, dose: 200.0 mg/kg/injection, schedule: Q01DX001 (ip), vehicle: steriod suspending solution 100 % of control | [6] 90 % of control | endpoint: mean survival time, dose: 400.0 mg/kg/injection, schedule: Q01DX001 (ip), vehicle: steriod suspending solution 106 % of control | [7] 94 % of control

CN(C)Cc1cc(Cl)cc(CN(C)C)c1O
inactive: endpoint: mean survival time, dose: 100.0 mg/kg/injection, schedule: Q04DX002 (ip), vehicle: saline with Tween-80 104 % of control | endpoint: mean survival time, dose: 100.0 mg/kg/injection, schedule: Q04DX003 (ip), vehicle: saline 99 % of control | endpoint: mean survival time, dose: 200.0 mg/kg/injection, schedule: Q04DX003 (ip), vehicle: saline 104 % of control

O=C(O)c1ccc2c(c1Nc1ccccc1)C(=O)c1ccccc1C2=O
inactive: endpoint: mean survival time, dose: 100.0 mg/kg/injection, schedule: Q01DX009 (ip), vehicle: saline 106 % of control | endpoint: mean survival time, dose: 200.0 mg/kg/injection, schedule: Q01DX009 (ip), vehicle: saline 94 % of control | endpoint: mean survival time, dose: 400.0 mg/kg/injection, schedule: Q01DX009 (ip), vehicle: saline 94 % of control

O=C(Cn1ccc(=O)[nH]c1=O)Nc1ccc(C(=O)O)cc1
inactive: [3] 96 % of control | [4] 111 % of control | [8] 96 % of control

COC[P+](c1ccccc1)(c1ccccc1)c1ccccc1
inactive: endpoint: mean survival time, dose: 1.25 mg/kg/injection, schedule: Q01DX001 (ip), vehicle: Klucel (hydroxypropylcellulose) (HPC) 96 % of control | endpoint: mean survival time, dose: 1.25 mg/kg/injection, schedule: Q01DX009 (ip), vehicle: Klucel (hydroxypropylcellulose) (HPC) 90 % of control | endpoint: mean survival time, dose: 2.5 mg/kg/injection, schedule: Q01DX001 (ip), vehicle: Klucel (hydroxypropylcellulose) (HPC) 105 % of control | endpoint: mean survival time, dose: 2.5 mg/kg/injection, schedule: Q01DX009 (ip), vehicle: Klucel (hydroxypropylcellulose) (HPC) 92 % of control | endpoint: mean survival time, dose: 5.0 mg/kg/injection, schedule: Q01DX001 (ip), vehicle: Klucel (hydroxypropylcellulose) (HPC) 97 % of control | endpoint: mean survival time, dose: 5.0 mg/kg/injection, schedule: Q01DX009 (ip), vehicle: Klucel (hydroxypropylcellulose) (HPC) 96 % of control | endpoint: mean survival time, dose: 10.0 mg/kg/injection, schedule: Q01DX001 (ip), vehicle: Klucel (hydroxypropylcellulose) (HPC) 100 % of control | endpoint: mean survival time, dose: 10.0 mg/kg/injection, schedule: Q01DX009 (ip), vehicle: Klucel (hydroxypropylcellulose) (HPC) 113 % of control

Cc1cc(N)c(C(=O)O)cc1C
inactive: endpoint: mean survival time, dose: 50.0 mg/kg/injection, schedule: Q01DX001 (ip), vehicle: saline 104 % of control | [3] 107 % of control | [4] 104 % of control | [8] 104 % of control

CCCCCCCCC/C(=N\N=C(N)N)c1ccccc1
inactive: endpoint: mean survival time, dose: 15.0 mg/kg/injection, schedule: Q01DX Z (ip), vehicle: methylcellulose (MC) 94 % of control | endpoint: mean survival time, dose: 30.0 mg/kg/injection, schedule: Q01DX Z (ip), vehicle: methylcellulose (MC) 96 % of control | endpoint: mean survival time, dose: 50.0 mg/kg/injection, schedule: Q01DX Z (oral), vehicle: methylcellulose (MC) 89 % of control | endpoint: mean survival time, dose: 60.0 mg/kg/injection, schedule: Q01DX Z (ip), vehicle: methylcellulose (MC) 90 % of control | endpoint: mean survival time, dose: 60.0 mg/kg/injection, schedule: Q01DX Z (oral), vehicle: methylcellulose (MC) 102 % of control | endpoint: mean survival time, dose: 120.0 mg/kg/injection, schedule: Q01DX Z (ip), vehicle: methylcellulose (MC) 108 % of control | endpoint: mean survival time, dose: 120.0 mg/kg/injection, schedule: Q01DX Z (oral), vehicle: methylcellulose (MC) 98 % of control | endpoint: mean survival time, dose: 240.0 mg/kg/injection, schedule: Q01DX Z (ip), vehicle: methylcellulose (MC) 96 % of control | endpoint: mean survival time, dose: 400.0 mg/kg/injection, schedule: Q01DX Z (oral), vehicle: methylcellulose (MC) 89 % of control | endpoint: mean survival time, dose: 480.0 mg/kg/injection, schedule: Q01DX Z (ip), vehicle: methylcellulose (MC) 113 % of control | endpoint: mean survival time, dose: 1000.0 mg/kg/injection, schedule: Q01DX Z (ip), vehicle: methylcellulose (MC) 87 % of control | endpoint: mean survival time, dose: 1500.0 mg/kg/injection, schedule: Q01DX Z (ip), vehicle: methylcellulose (MC) 100 % of control

O=C(O)CCC(=O)c1ccc(C2CCCC2)c2ccccc12
inactive: endpoint: mean survival time, dose: 100.0 mg/kg/injection, schedule: Q01DX001 (ip), vehicle: carboxymethylcellulose (CMC) 91 % of control | endpoint: mean survival time, dose: 200.0 mg/kg/injection, schedule: Q01DX001 (ip), vehicle: carboxymethylcellulose (CMC) 93 % of control | endpoint: mean survival time, dose: 400.0 mg/kg/injection, schedule: Q01DX001 (ip), vehicle: carboxymethylcellulose (CMC) 89 % of control

Cc1ccc(N2CCNCC2)cc1
inactive: endpoint: mean survival time, dose: 6.25 mg/kg/injection, schedule: Q04DX003 (ip), vehicle: saline 91 % of control | endpoint: mean survival time, dose: 12.5 mg/kg/injection, schedule: Q04DX003 (ip), vehicle: saline 93 % of control | endpoint: mean survival time, dose: 25.0 mg/kg/injection, schedule: Q04DX003 (ip), vehicle: saline 103 % of control

CC(=O)OCC1OC(SSC2OC(COC(C)=O)C(OC(C)=O)C(OC(C)=O)C2OC(C)=O)C(OC(C)=O)C(OC(C)=O)C1OC(C)=O (stereo not given)
inactive: [3] 93 % of control | [4] 95 % of control | [8] 89 % of control

CN(C)/C=N/n1cnc2c(ncn2C2OC(CO)C(O)C2O)c1=O (stereo not given)
inactive: endpoint: mean survival time, dose: 100.0 mg/kg/injection, schedule: Q01DX003 (ip), vehicle: saline 102 % of control | endpoint: mean survival time, dose: 200.0 mg/kg/injection, schedule: Q01DX003 (ip), vehicle: saline 94 % of control

O=C(OCC#CC#CCOC(=O)c1cccc2ccccc12)c1cccc2ccccc12
inactive: [9] 93 % of control | [10] 89 % of control | [11] 93 % of control
